The record followed here is patent US20210253575A1, “PYRROLIDINE AMINE COMPOUNDS FOR THE TREATMENT OF AUTOIMMUNE DISEASE” (Hoffmann-La Roche Inc., priority 2018, published 2021).

The target in this assay is T1, human TLR8 (Homo sapiens, UniProt Q9NR97).
T1 sequence (Q9NR97 27-1041): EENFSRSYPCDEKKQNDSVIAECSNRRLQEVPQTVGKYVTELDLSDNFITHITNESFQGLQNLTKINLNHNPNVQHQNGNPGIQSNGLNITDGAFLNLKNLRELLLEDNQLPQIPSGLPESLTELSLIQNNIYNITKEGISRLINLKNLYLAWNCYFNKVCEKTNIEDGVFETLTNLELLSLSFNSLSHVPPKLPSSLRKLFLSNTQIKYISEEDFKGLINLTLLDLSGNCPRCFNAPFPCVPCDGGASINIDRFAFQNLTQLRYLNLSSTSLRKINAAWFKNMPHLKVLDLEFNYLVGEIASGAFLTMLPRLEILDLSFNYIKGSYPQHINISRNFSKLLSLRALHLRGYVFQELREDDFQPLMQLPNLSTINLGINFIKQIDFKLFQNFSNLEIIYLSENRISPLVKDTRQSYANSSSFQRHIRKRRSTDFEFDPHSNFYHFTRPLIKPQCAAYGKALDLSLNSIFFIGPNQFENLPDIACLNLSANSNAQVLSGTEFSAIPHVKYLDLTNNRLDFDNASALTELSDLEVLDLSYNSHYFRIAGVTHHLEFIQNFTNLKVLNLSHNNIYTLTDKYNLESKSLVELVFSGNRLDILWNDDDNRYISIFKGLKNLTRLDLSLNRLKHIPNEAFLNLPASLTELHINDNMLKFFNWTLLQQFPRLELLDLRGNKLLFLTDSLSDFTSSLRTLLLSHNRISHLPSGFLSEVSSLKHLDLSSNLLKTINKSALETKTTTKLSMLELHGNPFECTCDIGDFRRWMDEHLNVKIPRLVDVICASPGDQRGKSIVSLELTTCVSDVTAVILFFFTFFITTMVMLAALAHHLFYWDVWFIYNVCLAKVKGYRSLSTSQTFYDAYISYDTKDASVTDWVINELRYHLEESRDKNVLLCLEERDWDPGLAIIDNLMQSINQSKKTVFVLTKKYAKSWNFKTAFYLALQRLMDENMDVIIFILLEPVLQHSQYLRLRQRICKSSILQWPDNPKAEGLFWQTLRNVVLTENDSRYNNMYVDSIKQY
In words: HEK293-Blue-hTLR-8 cells assay (SEAP reporter, R848 stimulation). The format is cell-based. Particulars: HEK293-Blue-hTLR8 cells, R848 ligand, 20 hrs incubation. Here is the method:
The following tests were carried out in order to determine the activity of the compounds of formula (I) in HEK293-Blue-hTLR-7/8/9 cells assay.
HEK293-Blue-hTLR-8 Cells Assay:
A stable HEK293-Blue-hTLR-8 cell line was purchased from InvivoGen (Cat. #: hkb-htlr8, San Diego, Calif., USA). These cells were originally designed for studying the stimulation of human TLR8 by monitoring the activation of NF-κB. A SEAP (secreted embryonic alkaline phosphatase) reporter gene was placed under the control of the IFN-β minimal promoter fused to five NF-κB and AP-1-binding sites. The SEAP was induced by activating NF-κB and AP-1 via stimulating HEK-Blue hTLR8 cells with TLR8 ligands. Therefore the reporter expression was declined by TLR8 antagonist under the stimulation of a ligand, such as R848, for incubation of 20 hrs. The cell culture supernatant SEAP reporter activity was determined using QUANTI-Blue™ kit (Cat. #: rep-qb1, Invivogen, San Diego, Ca, USA) at a wavelength of 640 nm, a detection medium that turns purple or blue in the presence of alkaline phosphatase.
HEK293-Blue-hTLR8 cells were incubated at a density of 250,000˜450,000 cells/mL in a volume of 170 μL in a 96-well plate in Dulbecco's Modified Eagle's medium (DMEM) containing 4.5 g/L glucose, 50 U/mL penicillin, […], […], 2 mM L-glutamine, 10% (v/v) heat-inactivated fetal bovine serum with addition of 20 μL test compound in a serial dilution in the presence of final DMSO at 1% and 10 μL of 60 uM R848 in above DMEM, perform incubation under 37° C. in a CO2 incubator for 20 hrs. Then 20 μL of the supernatant from each well was incubated with 180 μL Quanti-blue substrate solution at 37° C. for 2 hrs and the absorbance was read at 620-655 nm using a spectrophotometer. The signalling pathway that TLR8 activation leads to downstream NF-κB activation has been widely accepted, and therefore similar reporter assay was modified for evaluating TLR8 antagonist.
By IC50 is commonly meant the point on the concentration scale where inhibition reaches its midpoint. Read a low IC50 as greater potency. The compound `N#Cc1ccc(N2C[C@H](CN3CCC4(CCNC4)CC3)[C@@H](C(F)(F)F)C2)c2nccnc12` [Example 14, 8-[(3S,4R)-3-(2,8-Diazaspiro[4.5]decan-8-ylmethyl)-4-(trifluoromethyl)pyrrolidin-1-yl]quinoxaline-5-carbonitrile] came in with an IC50 of 19 nM.

As for `N#Cc1ccc(N2CC(CN3CCC4(CCNCC4)CC3)C3(CC3)C2)c2nccnc12` (stereo not drawn) [Example 16, 8-[7-(3,9-Diazaspiro[5.5]undecan-3-ylmethyl)-5-azaspiro[2.4]heptan-5-yl]quinoxaline-5-carbonitrile], inhibition was half-maximal at 133 nM (IC50).

The compound `C[C@H]1CN(c2ccc(C#N)c3nccnc23)C[C@@H]1CN1CCC2(CCNCC2)CC1` [Example 17, 8-[(3S,4R)-3-(3,9-diazaspiro[5.5]undecan-3-ylmethyl)-4-methyl-pyrrolidin-1-yl]quinoxaline-5-carbonitrile] displayed an IC50 of 65 nM.

As for `N#Cc1ccc(N2CC(CN3C[C@H]4CNC[C@H]4C3)C3(CC3)C2)c2nccnc12` (stereo partly drawn) [Example 18, 8-[7-[[(3aR,6aS)-2,3,3a,4,6,6a-hexahydro-H-pyrrolo[3,4-c]pyrrol-5-yl]methyl]-5-azaspiro[2.4]heptan-5-yl]quinoxaline-5-carbonitrile], the 50% inhibitory concentration (IC50) is 82 nM.

With `FC(F)(F)c1ccc(N2CC(CN3CCNCC3)C3(CC3)C2)c2nccnc12` (stereo not drawn) [Example 20, 5-[7-(Piperazin-1-ylmethyl)-5-azaspiro[2.4]heptan-5-yl]-8-(trifluoromethyl)quinoxaline], the IC50 was 68 nM.

Take `N#Cc1ccc(N2CC(CN3CCC4(CCCNC4)C3)C3(CC3)C2)c2nccnc12` (stereo not drawn) [Example 22, 8-[7-(2,9-Diazaspiro[4.5]decan-2-ylmethyl)-5-azaspiro[2.4]heptan-5-yl]quinoxaline-5-carbonitrile]: 79 nM corresponded to half-maximal inhibition (IC50).

On to `C[C@H]1CN(c2ccc(C#N)c3ncccc23)C[C@@H]1CN1CCC2(CCNCC2)CC1` [Example 23, 5-[(3S,4R)-3-(3,9-diazaspiro[5.5]undecan-3-ylmethyl)-4-methyl-pyrrolidin-1-yl]quinoline-8-carbonitrile], for which the 50% inhibitory concentration (IC50) came out at 266 nM.

The compound `N#Cc1ccc(N2CC(CN3CC4(CCCNC4)C3)C3(CC3)C2)c2nccnc12` (stereo not drawn) [Example 24, 8-[7-(2,8-Diazaspiro[3.5]nonan-2-ylmethyl)-5-azaspiro[2.4]heptan-5-yl]quinoxaline-5-carbonitrile] displayed an IC50 of 63 nM.

For `N#Cc1ccc(N2CC(CN3C4CCC3CC(N)C4)C3(CC3)C2)c2nccnc12` (stereo not drawn) [Example 25, 8-[7-[(3-Amino-8-azabicyclo[3.2.1]octan-8-yl)methyl]-5-azaspiro[2.4]heptan-5-yl]quinoxaline-5-carbonitrile], the IC50 amounted to 108 nM.

As for `N#Cc1ccc(N2C[C@H](CN3CCC(N)CC3)[C@@H](C(F)(F)F)C2)c2nccnc12` [Example 26, 8-[(3S,4R)-3-[(4-Amino-1-piperidyl)methyl]-4-(trifluoromethyl)pyrrolidin-1-yl]quinoxaline-5-carbonitrile], half-maximal inhibition (IC50) required 21 nM.

`C[C@H]1CN(c2ccc(C#N)c3nccnc23)C[C@@H]1CN1CCC2(CCNC2)C1` (stereo partly drawn) [Example 30, 8-[(3S,4R)-3-(2,7-diazaspiro[4.4]nonan-2-ylmethyl)-4-methyl-pyrrolidin-1-yl]quinoxaline-5-carbonitrile] had an IC50 of 72 nM.

Turning to `FC(F)(F)c1ccc(N2CC(CN3CCC4(CCNCC4)CC3)C3(CC3)C2)c2nccnc12` (stereo not drawn) [Example 31, 3-[[5-[8-(Trifluoromethyl)quinoxalin-5-yl]-5-azaspiro[2.4]heptan-7-yl]methyl]-3,9-diazaspiro[5.5]undecane], 418 nM corresponded to half-maximal inhibition (IC50).

In the case of `N#Cc1ccc(N2CC(CN3CCC4(CCNCC4)C3)C3(CC3)C2)c2nccnc12` (stereo not drawn) [Example 32, 8-[7-(2,8-Diazaspiro[4.5]decan-2-ylmethyl)-5-azaspiro[2.4]heptan-5-yl]quinoxaline-5-carbonitrile], the IC50 amounted to 111 nM.

Compound `C[C@H]1CN(c2ccc(C#N)c3ncccc23)C[C@@H]1CN1CCC2(CCNC2)C1` (stereo partly drawn) [Example 35, 5-[(3S,4R)-3-(2,7-diazaspiro[4.4]nonan-2-ylmethyl)-4-methyl-pyrrolidin-1-yl]quinoline-8-carbonitrile] returned an IC50 of 245 nM.

The compound `N#Cc1ccc(N2CCC(CN3CCC4(CCNCC4)CC3)C2)c2nccnc12` (stereo not drawn) [Example 37, 8-[3-(3,9-Diazaspiro[5.5]undecan-3-ylmethyl)pyrrolidin-1-yl]quinoxaline-5-carbonitrile] returned a half-inhibitory concentration (IC50) of 531 nM.

Compound `N#Cc1ccc(N2CC(CNC3CCCNCC3)C3(CC3)C2)c2nccnc12` (stereo not drawn) [Example 39, 8-[7-[(Azepan-4-ylamino)methyl]-5-azaspiro[2.4]heptan-5-yl]quinoxaline-5-carbonitrile] showed an IC50 of 132 nM.

`C[C@@H]1CN(c2ccc(C(F)(F)F)c3nccnc23)C[C@H]1CNC1CCCNCC1` (stereo partly drawn) [Example 40] had a half-maximal inhibitory concentration (IC50) of 742 nM.

With `FC(F)(F)c1ccc(N2CC(CN3C[C@H]4CNC[C@H]4C3)C3(CC3)C2)c2nccnc12` (stereo partly drawn) [Example 41, 5-[7-[[(3aR,6aS)-2,3,3a,4,6,6a-hexahydro-H-pyrrolo[3,4-c]pyrrol-5-yl]methyl]-5-azaspiro[2.4]heptan-5-yl]-8-(trifluoromethyl)quinoxaline], the IC50 came to 357 nM.

As for `N#Cc1ccc(N2CC(CN3CC4(CC(N)C4)C3)C3(CC3)C2)c2nccnc12` (stereo not drawn) [Example 42, 8-[7-[(6-Amino-2-azaspiro[3.3]heptan-2-yl)methyl]-5-azaspiro[2.4]heptan-5-yl]quinoxaline-5-carbonitrile], the IC50 is 161 nM.

Turning to `N#Cc1ccc(N2CC(CN3CCC4(CCNC4)C3)C3(CC3)C2)c2cccnc12` (stereo not drawn) [Example 43, 5-[7-(2,7-Diazaspiro[4.4]nonan-2-ylmethyl)-5-azaspiro[2.4]heptan-5-yl]quinoline-8-carbonitrile], it took 718 nM to reach half-maximal inhibition (IC50).

`N#Cc1ccc(N2C[C@H](CN3CCC4(CCCNC4)CC3)[C@@H](C(F)(F)F)C2)c2nccnc12` [Example 45, 8-[(3S,4R)-3-(2,9-diazaspiro[5.5]undecan-9-ylmethyl)-4-(trifluoromethyl)pyrrolidin-1-yl]quinoxaline-5-carbonitrile] displayed a half-inhibitory concentration (IC50) of 32 nM.

In turn, `N#Cc1ccc(N2C[C@H](CN3CCC4(CCNCC4)C3)[C@@H](C(F)(F)F)C2)c2nccnc12` [Example 46, 8-[(3S,4R)-3-(2,8-diazaspiro[4.5]decan-2-ylmethyl)-4-(trifluoromethyl)pyrrolidin-1-yl]quinoxaline-5-carbonitrile] had an IC50 of 67 nM.

With `N#Cc1ccc(N2C[C@H](CN3CC4(CC(N)C4)C3)[C@@H](C(F)(F)F)C2)c2nccnc12` [Example 47, 8-[(3S,4R)-3-[(6-amino-2-azaspiro[3.3]heptan-2-yl)methyl]-4-(trifluoromethyl)pyrrolidin-1-yl]quinoxaline-5-carbonitrile], 74 nM corresponded to half-maximal inhibition (IC50).

The compound `N#Cc1ccc(N2C[C@H](CN3CC4(CCNCC4)C3)[C@@H](C(F)(F)F)C2)c2nccnc12` [Example 48, 8-[(3S,4R)-3-(2,7-diazaspiro[3.5]nonan-2-ylmethyl)-4-(trifluoromethyl)pyrrolidin-1-yl]quinoxaline-5-carbonitrile] returned an IC50 of 37 nM.
